Data published in US8273771B2, “Ischemic disorder or disease inhibitors” (Pronas Pharma AB, priority 2007, dated 2012).

System: rats with induced SAH
Test: Autoradiographic measurements of regional and global CBF after SAH
Assay type: in vivo, rat
Conditions: for reduction in regional CBF (rCBF) after SAH: 18 brain regions
Description: In addition they were treated with 20-50 μl; 10^-6 M of SB386023-b (a kind gift from Dr A A Parsons, GSK, UK) or the same volume of vehicle repeatedly 6, 12, 24 and 36 h after the induced SAH. This dose was based on a previous in vivo study with SAH.
In addition, they were treated with the PKC inhibitor RO-31-7549 (Calbiochem, Sweden) or vehicle in conjunction with the operation and after the induced SAH. All animals treated with RO-31-7549 received […] injections intracisternally of RO-31-7549 or vehicle in similar volume. Thus, 20 to 50 μl 10-^6 mol/L of RO-31-7549 was injected intracisternally at 30 mins before the induced SAH and after the SAH 20 μl 10-^6 mol/L of RO-31-7549 was administered repeatedly after 3, 6, 12, 24 and 32 h from the first RO-31-7549 injection. This dose was chosen on the basis of previous detailed work on isolated cerebral arteries (Hansen-Schwartz et al, 2002), the dose was chosen at near maximum inhibition and calculation of cerebrospinal fluid volume/turnover.
Regional and global cerebral blood flow was measured by a model originally described by Sakurada et al., (1978) and modified by Gjedde et al., (1980). In brief, after 48 hours of observation rats in the various groups (sham, SAH+vehicle and SAH treated with the raf inhibitor) were anaesthetized using 5% halothane in N2O/O2 (30:70). The animal was intubated and artificially ventilated with inhalation of 0.5-1.5% halothane in N2O/O2 (70:30) during the surgical procedure. The anaesthesia and the respiration were monitored by regularly withdrawing arterial blood samples for blood gas analysis (Radiometer AS, Denmark). A catheter to measure MABP was placed in the right femoral artery and a catheter for blood sampling was placed in the left femoral artery. This catheter was connected to a constant velocity withdrawal pump (Harvard apparatus 22, USA) for mechanical integration of tracer concentration. In addition, a catheter was inserted in one femoral vein for injection of heparin and for infusion of the radioactive tracer. The MABP was continuously monitored with a Powerlab Unit (ADInstruments, UK). A temperature probe was inserted into the rectum of the rat to record the temperature, which was regularly maintained at 37° C. The hematocrit was measured by a hematocrit centrifuge (Beckman Microfuge 11, USA). After 30 minutes of equilibration a bolus injection of 50 uCi of 14Ciodoantipyrine 4[N-methyl-14C] (Perkin-Elmer, Boston, USA) was given i.v. Arterial blood (122 μl) was withdrawn over 20 seconds. Immediately after this the animal was decapitated, the brain removed and immersed in isopentane (J. T. Baker, Deventer, Netherlands) chilled to −50° C. The arterial blood sample was transferred to liquid scintillation counting vials containing 1 ml mixture of Soluene-350 (Perkin-Elmer, Boston, USA) and Isopropanol (J. T. Baker, Deventer, Netherlands) (1:1). After 2 hours at 60° C., 0.2 ml of 30% hydrogen peroxide was added to the vials, and the samples were maintained at room temperature for 15-30 minutes. Thereafter the samples were kept at 60° C. for 30 minutes and 10-15 ml Hionic-Fluor (Perkin-Elmer, Foster, Calif., USA) was added. The β-radioactivity scintillation counting was performed on the samples with a program that included quench correction (Packard 2000 CA, Denmark). The 14C activity in the tissue was determined after sectioning the brain in 20 μm sections at −20° C. in a cryostat (Wild Leitz A/S, Glostrup, Denmark). The sections were exposed to x-ray films (Kodak, Denmark) together with 14C methylmethacrylate standards (Amersham Life Science, England) and exposed the films for 20 days. Densities of the autoradiograms were measured with a Macintosh computer equipped with an analog CF 4/1 camera (Kaiser, Germany) and a transparency flat viewer (Color-Control 5000, Weilheim, Germany). The 14C content was determined in several brain regions (see Table 2). […]

[1] = intracisternal injections from 30 min before SAH and repeatedly after

Row | Compound | global reduction in CBF after SAH [1] | reduction in regional CBF (rCBF) after SAH [1] | global cerebral blood flow (measured at 48 h, treatment 6 h after the SAH, control 140±6, SAH 63±2) | reduction in regional CBF (rCBF) after SAH (treatment at 6 h after SAH) | reduction in regional CBF (rCBF) after SAH (treatment at 0 h / in conjunction with the SAH)
1 | Cn1cc(C2=C(c3cn(CCCN)c4ccccc34)C(=O)NC2=O)c2ccccc21 [RO-31-7549] | prevented the marked reduction in CBF | prevented this reduction in rCBF |  |  | 
2 | Oc1cc(-c2nc(-c3ccccc3)[nH]c2-c2ccncc2)ccc1Cl [SB386023-b] |  |  | 128±4 ml/100 g/min | prevented this reduction in rCBF | 
3 | N#CC(=C(/N)Sc1ccccc1N)/C(C#N)=C(\N)Sc1ccccc1N [U0126] |  |  |  | prevented this reduction in rCBF | prevented this reduction in rCBF
